Experimental data taken from patent publication US20240325370A1, “THERAPEUTIC REGIMENS OF A DEGRADER OF BRD9” (FOGHORN THERAPEUTICS INC., priority 2021, published 2024).
Entries after “also recorded” stand apart in the source; their conditions may differ.

How the values were obtained:
[1] = biological target: T1, BRD9 (Homo sapiens, UniProt Q9H8M2); test: Pharmacodynamic activity in SYO-1 xenograft model (tumor BRD9 western blot); assay type: in vivo, mice; design: from tissue; host or cells: SYO-1 xenograft tumours in BALB/c nude or NOD SCID mice; settings: for BRD9 protein levels depleted by: 20% SBECD
T1 sequence (Q9H8M2 1-597): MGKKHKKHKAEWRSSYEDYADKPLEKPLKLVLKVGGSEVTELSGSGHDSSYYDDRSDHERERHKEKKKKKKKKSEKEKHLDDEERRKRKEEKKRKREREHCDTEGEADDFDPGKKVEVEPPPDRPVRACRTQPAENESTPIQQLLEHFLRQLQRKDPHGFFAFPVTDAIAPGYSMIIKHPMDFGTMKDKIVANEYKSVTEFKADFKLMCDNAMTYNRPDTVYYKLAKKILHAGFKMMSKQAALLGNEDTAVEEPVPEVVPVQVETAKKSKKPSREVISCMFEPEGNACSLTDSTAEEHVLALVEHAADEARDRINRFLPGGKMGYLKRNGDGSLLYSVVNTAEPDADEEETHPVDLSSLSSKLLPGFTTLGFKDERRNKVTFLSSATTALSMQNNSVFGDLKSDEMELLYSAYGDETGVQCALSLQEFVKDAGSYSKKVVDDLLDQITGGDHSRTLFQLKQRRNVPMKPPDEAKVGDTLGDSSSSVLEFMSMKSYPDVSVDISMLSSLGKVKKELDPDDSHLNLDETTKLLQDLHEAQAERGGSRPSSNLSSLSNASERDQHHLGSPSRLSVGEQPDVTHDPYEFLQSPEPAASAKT
Protocol: Method. The SYO-1 tumor cells were maintained in vitro as adherent cells in Dulbecco's Modified Eagle Medium (DMEM) supplemented with 10% fetal bovine serum at 37° C. in an atmosphere of 5% CO2 in air. The cells growing in an exponential growth phase were harvested and counted for tumor inoculation. BALB/c Nude mice (Shanghai Lingchang biological science) were inoculated subcutaneously on the right flank with (5×10^6) in 0.1 mL of phosphate buffered saline (PBS). The treatment-(described in table 6)—was started on day 19 after tumor inoculation, when the average tumor size reached 499 mm^3.
Mice were treated with racemic D1, 1 mg/kg, i.p. for 4 weeks, mice were euthanized, and tumors collected 1, 4, 8, 24, 48 and 72-hour post last dose. Tumors were lysed with 1×RIPA lysis buffer (Boston BioProducts, BP-115D) with protease and phosphatase protein inhibitor (Roche Applied Science #04906837001 & 05892791001). Equal amount of lysate (30 ug) were loaded in 4-12% Bis-Tris Midi Protein Gels in 1×MOPS buffer; samples ran at 120 V for 120 min. Proteins was transferred to membrane (NC) with TransBlot at 250 mA for 150 minute, then membranes were blocked with Odyssey Blocking buffer for 1 hour at room temperature. Membranes were hybridized overnight in cold room with primary antibodies. Images acquired using Li-COR imaging system (Li-COR Biotechnology, Lincoln, Nebraska).
Further study. The other study examined a range of compound D1 dose levels (0.05, 0.25, 1 or 5 mg/kg) formulated in a vehicle of 20% SBECD for tumor BRD9 protein levels up to 144 hours post dose. […] BRD9 protein levels were still depleted by 83.4% and 73.2% at 120 hours (5 days) and 144 hours (6 days), respectively, after a single IV administration of 5 mg/kg of compound D1, which corresponds to ˜2.5 mg/kg of compound S-D1.

[2] = biological target: T2, endogenous BRD9 (Homo sapiens, UniProt Q9H8M2); test: Western blot dose response of endogenous BRD9 degradation in cancer cell lines of different lineage; assay type: cell-based; settings: for potency of endogenous BRD9 degradation (western blot): 6 hours
T2 sequence (Q9H8M2 1-597): T1 sequence (Q9H8M2 1-597)
Protocol: Compound D1 and Compound S-D1 Dose Response Experiments in Multiple Cell Lines of Different Lineage. To evaluate the efficacy of compound S-D1 ((S)-enantiomer) and compound D1 (racemic) to degrade BRD9 across different cancer lineages (listed in Table 19), dose response experiments were performed in SYO-1, EOL-1, MD-MBA-231, OVCAR8, and PC-9 cell lines. After cell treatment, BRD9 protein levels were assessed by western blot analyses.
Cells grown in flasks to log phase growth were washed with PBS and dissociated by adding TrypLE™ Express (Foghorn) or Trypsin-EDTA 0.25% (Pharmaron). Collected cells were resuspended in their respective cell culture media, counted, and seeded at the indicated cell density in 6-well plates. Two wells were allocated per sample. Plates were incubated at 37° C. with 5% CO2 overnight.
The next day, compound was added to a final concentration as indicted in FIGS. 32B, 32C, and 32D with 3-fold dilution steps, with the final DMSO content of 0.1% (v/v) matching the untreated control. After 6 hours of incubation, cells were harvested, resuspended in PBS, and centrifuged at 5,000 rpm for 5 minutes. After being washed twice with PBS, the resulting cell pellets were stored at −80° C.
Cell lines and cell treatment procedures are highlighted in Table 19 and specific details about western blot procedures are listed in Table 20. The western blot procedure was as described above.

[3] = tested on: SYO-1 tumor; test: Intermittent dosing schedules, IV, SYO-1 xenograft efficacy; assay type: in vivo, mice; settings: for Tumor Size (mm^3) on Day 24: SYO-1 tumor-bearing NOD SCID mice, Mean ± SEM
Protocol: The objective of this study was to provide proof-of-concept of anti-tumor efficacy with intermittent dosing schedules for compound S-D1 by IV administration. Groups of female SYO-1 tumor-bearing NOD SCID mice (n=10/group) were dosed IV with vehicle, compound D1 or compound S-D1 for 24 days according to treatments and dosing schedules shown in Table 10. Compound D1 was formulated in 10% DMSO/40% PEG400/50% water and compound S-D1 was formulated in 20% SBECD in 5 mM citrate buffer, final pH was adjusted to 5 with 1 N NaOH. For the compound S-D1 treatment groups, plasma samples were collected at designated time points following the last dosing. Plasma samples were acidified to stabilize the compound right after collection and analyzed for compound S-D1 concentrations.

[4] = 1 mg/kg BIW IV, 24 days (compound D1)
[5] = 1 mg/kg BIW IV, 24 days (compound S-D1)

Row | BRD9 degradation activity when proteasome blocked ([2]; with 1 μM Bortezomib, a proteasome inhibitor (FIG. 32D, EOL-1 cells)) | SMILES | tumor BRD9 protein level response ([1]; 0.05, 0.25, 1 or 5 mg/kg, up to 144 hours post dose) | BRD9 protein levels depleted by ([1]; 120 hours (5 days) after a single IV administration of 5 mg/kg) | BRD9 protein levels depleted by ([1]; 144 hours (6 days) after a single IV administration of 5 mg/kg) | potency of endogenous BRD9 degradation (western blot) ([2]; MDA-MB-231 (breast cancer), OVCAR8 (ovarian cancer) and EOL1 cells) | potency of endogenous BRD9 degradation (western blot) ([2]; PC-9 (EGFR mutant lung cancer) cells) | T/C (%) [3, 4] | TGI (%) [3, 4] | Tumor Size (mm^3) on Day 24 ([3]; 1 mg/kg BIW IV, 24 days) | Pharmacodynamic activity: tumor BRD9 protein level by western blot ([1]; SYO-1 xenograft, BALB/c Nude mice, single dose i.v. (Table 6), listed as Enantiomer 2) | T/C (%) ([3]; 0.05 mg/kg BIW IV, 24 days) | TGI (%) ([3]; 0.05 mg/kg BIW IV, 24 days) | Tumor Size (mm^3) on Day 24 ([3]; 0.05 mg/kg BIW IV, 24 days) | T/C (%) [3, 5] | TGI (%) [3, 5] | Tumor Size (mm^3) on Day 24 [3, 5] | T/C (%) ([3]; 2 mg/kg QW IV, 24 days) | TGI (%) ([3]; 2 mg/kg QW IV, 24 days) | Tumor Size (mm^3) on Day 24 ([3]; 2 mg/kg QW IV, 24 days) | tumor response ([3]; 0.25 or 1 mg/kg twice weekly IV, SYO-1 tumor)
1 | – | COc1cc(-c2cn(C)c(=O)c3cnc(N4CCC4)cc23)cc(OC)c1CN1CCC(CN2CCC3(CC2)CN(c2ccc4c(c2)C(=O)N(C2CCC(=O)NC2=O)C4)C3)CC1 (racemic) [Compound D1, 3-[6-(7-[[1-([4-[6-(azetidin-1-yl)-2-methyl-1-oxo-2,7-naphthyridin-4-yl]-2,6-dimethoxyphenyl]methyl)piperidin-4-yl]methyl]-2,7-diazaspiro[3.5]nonan-2-yl)-1-oxo-3H-isoindol-2-yl]piperidine-2,6-dione] | robust and dose- and time-dependent | 83.4% | 73.2% | comparable potency | reduced potency | 12.6% | 87.4% | 426 ± 49 mm^3 | – | – | – | – | – | – | – | – | – | – | –
2 | largely abrogated | COc1cc(-c2cn(C)c(=O)c3cnc(N4CCC4)cc23)cc(OC)c1CN1CCC(CN2CCC3(CC2)CN(c2ccc4c(c2)C(=O)N([C@H]2CCC(=O)NC2=O)C4)C3)CC1 (single isomer, unassigned) [Compound S-D1] | – | – | – | – | – | – | – | – | significant activity; also recorded: degraded BRD9 up to 72 hours after a single dose; also recorded: equipotent to racemic compound D1 | 58.2% | 41.8% | 1946 ± 123 mm^3 | 8.1% | 91.9% | 280 ± 37 mm^3 | 10.1% | 89.9% | 341 ± 38 mm^3 | tumor stasis
